# Values of other authors, collected in paper PMC10686834, “Targeting myeloid chemotaxis to reverse prostate cancer therapy resistance” (Nature, 2023).
# Like-named read-outs stand apart in the source and are kept apart here.
# What was measured:
# [1] = system: mCRPC patients; parameters: method as in ref (10) (a number printed in a supplementary file, which may have a reference list of its own: not looked up in the article's list); settings: ref (10), cited from earlier work
# [2] = parameters: method as in U.S enzalutamide Full Prescribing Information; settings: ref U.S enzalutamide Full Prescribing Information, cited from earlier work
# [3] = system: CYP2C19; parameters: method as in U.S enzalutamide Full Prescribing Information; settings: steady state; ref U.S enzalutamide Full Prescribing Information; cited from earlier work
# [4] = system: CYP3A4; parameters: method as in U.S enzalutamide Full Prescribing Information; settings: single 160mg oral dose after multiple oral doses of itraconazole; ref U.S enzalutamide Full Prescribing Information; cited from earlier work
# [5] = system: CYP2C9; parameters: method as in U.S enzalutamide Full Prescribing Information; settings: steady state; ref U.S enzalutamide Full Prescribing Information; cited from earlier work
# [6] = system: chemotherapy naïve patients with progressive metastatic prostate cancer; parameters: method as in ref (17) (a number printed in a supplementary file, which may have a reference list of its own: not looked up in the article's list); settings: PREVAIL, ref (17), cited from earlier work
# [7] = system: patients with progressive castration resistant prostate cancer previously treated with docetaxel; parameters: method as in ref (8) (a number printed in a supplementary file, which may have a reference list of its own: not looked up in the article's list); settings: AFFIRM, ref (8), cited from earlier work
# [8] = system: CYP3A4; parameters: method as in U.S enzalutamide Full Prescribing Information; settings: steady state; ref U.S enzalutamide Full Prescribing Information; cited from earlier work
structure (smiles),measurement,setting,value
C[C@]12CC[C@H](O)CC1=CC[C@@H]1[C@@H]2CC[C@]2(C)C(c3cccnc3)=CC[C@@H]12 [abiraterone],patients responding to abiraterone (PSA decline ≥50% below baseline maintained for ≥3 weeks),[1]; patients with an NLR > 5,16%
same,patients responding to abiraterone (PSA decline ≥50% below baseline maintained for ≥3 weeks),[1]; patients with an NLR ≤ 5,49%
CNC(=O)c1ccc(N2C(=S)N(c3ccc(C#N)c(C(F)(F)F)c3)C(=O)C2(C)C)cc1F [enzalutamide],time to maximum plasma concentration (tmax),[2]; after a single oral dose,1 h
same,time to reach steady state concentrations,[2]; daily oral administration,approximately 1 month
same,average difference between peak (Cmax) and trough (Cmin) concentrations,[2]; steady state,25%
same,CYP2C19 induction in humans,[3],moderate
same,increase of AUC0-inf of enzalutamide plus N-desmethyl-enzalutamide,[4],1.3 fold
same,CYP2C9 induction in humans,[5],moderate
same,grade 3 or higher adverse events,[6]; enzalutamide group,43%
same,"hypertension, grade 3 or higher",[6]; enzalutamide group,7%
same,patients alive at time of analysis,[6]; enzalutamide group,72%
same,rate of radiographic progression-free survival at 12 months,[6]; enzalutamide group,65%
same,"HR, radiographic progression-free survival",[6]; enzalutamide vs placebo,0.19
same,"HR, survival",[6]; enzalutamide vs placebo,0.71
same,"HR, time to PSA progression",[6]; enzalutamide vs placebo,0.17
same,"HR, time to initiation of cytotoxic therapy",[6]; enzalutamide vs placebo,0.35
same,"HR, time until the first skeletal-related event",[6]; enzalutamide vs placebo,0.72
same,complete/partial soft tissue response,[6]; enzalutamide,59%
same,reduction in PSA level by 50% or more,[6]; enzalutamide,78%
same,median overall survival,[7]; enzalutamide group (800 patients),18.4 months
same,incidence of grade 3 adverse events,[7]; enzalutamide group,45.3%
same,"HR, radiographic progression-free survival",[7]; enzalutamide vs placebo,0.40
same,"HR, time to PSA progression",[7]; enzalutamide vs placebo,0.25
same,"HR, time to first skeletal-related event",[7]; enzalutamide vs placebo,0.69
same,quality of life response rate,[7]; enzalutamide,43%
same,radiographic progression-free survival,[7]; enzalutamide,8.3 months
same,reduction in PSA level by 50% or more,[7]; enzalutamide,54%
same,soft tissue response rate,[7]; enzalutamide,29%
same,time to PSA progression,[7]; enzalutamide,8.3 months
same,time to first skeletal-related event,[7]; enzalutamide,16.7 months
same,liver-function abnormalities reported as adverse events,[7]; patients receiving enzalutamide,1%
same,CYP3A4 induction in humans,[8],strong
